The record followed here is patent US7638526B2, “Azetidine derivatives useful in treating pain, diabetes and disorders of lipid metabolism” (Schering Corporation, priority 2006, dated 2009).

The target in the first test is T1, human Cav3.2 (Homo sapiens, UniProt O95180).
T1 construct: expressed in transfected cells
T1 sequence (O95180 whole entry): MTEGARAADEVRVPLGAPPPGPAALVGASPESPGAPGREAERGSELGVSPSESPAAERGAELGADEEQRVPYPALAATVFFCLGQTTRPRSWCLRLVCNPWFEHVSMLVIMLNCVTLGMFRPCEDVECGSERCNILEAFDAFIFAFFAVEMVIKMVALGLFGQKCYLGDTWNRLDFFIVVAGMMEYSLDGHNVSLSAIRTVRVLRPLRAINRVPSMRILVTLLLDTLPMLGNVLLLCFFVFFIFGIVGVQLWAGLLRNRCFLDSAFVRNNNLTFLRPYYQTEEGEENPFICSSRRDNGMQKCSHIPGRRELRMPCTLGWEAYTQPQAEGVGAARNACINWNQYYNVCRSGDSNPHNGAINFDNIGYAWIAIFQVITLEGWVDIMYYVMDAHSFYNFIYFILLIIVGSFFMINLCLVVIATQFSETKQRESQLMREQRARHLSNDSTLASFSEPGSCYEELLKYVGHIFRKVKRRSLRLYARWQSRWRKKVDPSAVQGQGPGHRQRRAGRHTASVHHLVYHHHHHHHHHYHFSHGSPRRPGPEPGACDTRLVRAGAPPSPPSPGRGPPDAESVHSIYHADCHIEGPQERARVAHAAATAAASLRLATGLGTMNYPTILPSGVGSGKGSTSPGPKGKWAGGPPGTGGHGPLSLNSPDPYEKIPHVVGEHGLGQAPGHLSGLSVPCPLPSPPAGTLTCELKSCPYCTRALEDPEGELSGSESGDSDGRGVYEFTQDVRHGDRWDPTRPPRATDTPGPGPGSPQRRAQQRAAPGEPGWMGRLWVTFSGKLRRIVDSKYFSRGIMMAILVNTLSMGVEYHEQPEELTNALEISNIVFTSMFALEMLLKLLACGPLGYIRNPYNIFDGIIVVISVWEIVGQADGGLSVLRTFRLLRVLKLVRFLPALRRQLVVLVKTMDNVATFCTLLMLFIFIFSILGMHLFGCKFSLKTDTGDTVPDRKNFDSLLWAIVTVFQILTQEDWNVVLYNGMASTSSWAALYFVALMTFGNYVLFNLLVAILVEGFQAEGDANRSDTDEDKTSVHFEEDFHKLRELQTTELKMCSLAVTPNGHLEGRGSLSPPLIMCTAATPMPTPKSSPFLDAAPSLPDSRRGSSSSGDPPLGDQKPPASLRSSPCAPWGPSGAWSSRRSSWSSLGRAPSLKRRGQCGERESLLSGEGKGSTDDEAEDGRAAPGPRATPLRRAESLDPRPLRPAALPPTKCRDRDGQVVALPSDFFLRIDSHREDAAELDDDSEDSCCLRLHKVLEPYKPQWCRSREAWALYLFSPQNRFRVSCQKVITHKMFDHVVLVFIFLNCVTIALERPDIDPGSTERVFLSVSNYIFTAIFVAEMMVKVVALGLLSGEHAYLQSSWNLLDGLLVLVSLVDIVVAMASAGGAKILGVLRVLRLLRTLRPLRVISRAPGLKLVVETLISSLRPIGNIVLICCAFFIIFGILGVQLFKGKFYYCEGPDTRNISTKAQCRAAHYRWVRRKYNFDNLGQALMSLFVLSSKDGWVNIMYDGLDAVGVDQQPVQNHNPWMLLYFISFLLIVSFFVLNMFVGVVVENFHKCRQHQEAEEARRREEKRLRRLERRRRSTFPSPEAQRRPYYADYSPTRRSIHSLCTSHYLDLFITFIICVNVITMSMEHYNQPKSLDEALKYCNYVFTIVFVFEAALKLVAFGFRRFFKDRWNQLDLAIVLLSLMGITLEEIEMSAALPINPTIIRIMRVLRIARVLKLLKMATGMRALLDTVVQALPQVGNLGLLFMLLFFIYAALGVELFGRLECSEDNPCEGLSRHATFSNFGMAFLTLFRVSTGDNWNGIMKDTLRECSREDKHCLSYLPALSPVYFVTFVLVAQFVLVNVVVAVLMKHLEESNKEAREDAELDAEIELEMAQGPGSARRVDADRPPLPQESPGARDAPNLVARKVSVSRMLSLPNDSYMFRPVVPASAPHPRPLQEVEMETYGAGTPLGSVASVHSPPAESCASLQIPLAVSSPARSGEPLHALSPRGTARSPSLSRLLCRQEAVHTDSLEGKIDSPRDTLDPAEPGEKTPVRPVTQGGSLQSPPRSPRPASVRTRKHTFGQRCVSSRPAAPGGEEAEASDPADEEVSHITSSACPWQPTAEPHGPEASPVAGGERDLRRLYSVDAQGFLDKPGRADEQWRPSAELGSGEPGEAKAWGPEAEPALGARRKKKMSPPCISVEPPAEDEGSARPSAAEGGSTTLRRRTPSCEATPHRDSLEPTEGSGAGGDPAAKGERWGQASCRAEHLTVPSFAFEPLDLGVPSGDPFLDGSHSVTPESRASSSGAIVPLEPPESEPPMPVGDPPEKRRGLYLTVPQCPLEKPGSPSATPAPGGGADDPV
Put plainly: Conventional whole cell patch clamp, hCav3.2 current. The class given is cell-based. As to conditions: values marked * in Table 10; voltage clamp assay. The source says:
(§1) Functional evaluation of voltage-gated ion channels was used to determine potency and/or single concentration efficacy of proprietary compounds. Two different methodologies were used to measure ion currents: the IonWorks HT (Molecular Devices, Sunnyvale, Calif.) a moderate throughput voltage clamp screening platform that utilizes 96-well compound plates and conventional whole cell patch clamp for lower throughput, higher fidelity determinations.
HEK cells were transiently transfected and then selected for stable heterologous expression of different channel proteins of interest. Calcium channel cell lines expressed a resting potassium current, human Kir2.1, and the pore forming α-subunit of voltage-gated calcium channels. In the case of Cav2.1 cells the auxiliary subunit, β2a, was also expressed. […]
The holding potential was −100 mV for all protocols. […] Cav3.2 currents were measured as the peak current 10-30 milliseconds after the voltage was stepped to −35 mV. […] For hCav2.1 currents were activated with a 200 millisecond step to 0 mV. hCav2.1 currents were measured from the leak-subtracted traces as the average current between 190 and 200 milliseconds after the step to 0 mV. […] Sodium currents were measured from leak subtracted traces as the peak transient inward current.
All drug effects were measured after a steady-state effect was achieved. […]
Background: Patch clamp records ionic current or voltage across a cell membrane.
Regarding `CC(C)CCN1CC2(CCN(C(=O)NC34CC5CC(CC(C5)C3)C4)CC2)C1c1ccc(F)cc1` (centres unmarked), half-maximal inhibition (IC50) required 202 nM.
Take `CC[C@H](C)[C@H](NC(=O)N1CCC2(CC1)CN(C(C)C)C2c1ccc(Br)cc1)C(=O)OC` (single isomer, unassigned): the midpoint of inhibition, the IC50, lay at 82 nM.

A further test addresses T2, human GPR119 (Homo sapiens, UniProt Q8TDV5).
T2 construct: expressed in transfected cells
T2 sequence (Q8TDV5 1-335): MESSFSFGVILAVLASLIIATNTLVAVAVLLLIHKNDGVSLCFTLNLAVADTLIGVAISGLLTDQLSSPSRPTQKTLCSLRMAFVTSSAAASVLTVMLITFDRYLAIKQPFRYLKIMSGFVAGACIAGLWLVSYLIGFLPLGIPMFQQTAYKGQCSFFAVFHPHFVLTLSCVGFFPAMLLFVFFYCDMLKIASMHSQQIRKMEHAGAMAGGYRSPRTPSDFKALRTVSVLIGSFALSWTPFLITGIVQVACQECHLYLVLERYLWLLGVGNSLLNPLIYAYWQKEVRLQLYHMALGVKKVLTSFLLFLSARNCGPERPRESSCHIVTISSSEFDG
Put plainly: GPR119 screening assay (LANCE cAMP, HEK 293 cells stably transfected with human GPR119). The class given is cell-based. As to conditions: HEK 293 cells stably transfected with human GPR119, LANCE cAMP; read-out: GPR 119 cAMP EC50. (In general: TR-FRET usually uses a lanthanide donor and a delayed reading to cut background.)
`COc1cc(C(=O)N2CCC3(CC2)CN(c2ccccc2F)C3c2ccc(Cl)cc2)cc(OC)c1OC` (centres unmarked): the 50% effective concentration (EC50) (commonly the concentration at which the effect is half-maximal) was 516 nM.
Still for that read-out and setting: to `COc1cc(C(=O)N2CCC3(CC2)CN(CC(C)C)C3c2ccccc2)cc(OC)c1OC` (centres unmarked) belongs 882 nM; to `COc1cc(C(=O)N2CCC3(CC2)CN(Cc2ccc(F)cc2F)C3c2ccc(F)cc2)cc(OC)c1OC` (centres unmarked), 1200 nM; to `COc1cc(C(=O)N2CCC3(CC2)CN(Cc2ccccc2Cl)C3c2ccccc2)cc(OC)c1OC` (centres unmarked), 1260 nM.
As to `O=C(c1ccc2c(c1)OCCCO2)N1CCC2(CC1)CN(Cc1ccc(F)cc1F)C2c1ccc(F)cc1` (centres unmarked), the 50% effective concentration (EC50) worked out at 1300 nM.
Regarding `COc1cc(C(=O)N2CCC3(CC2)CN(c2ccc(C)cc2)C3c2ccc(Cl)cc2)cc(OC)c1OC` (centres unmarked), the EC50 came to 1340 nM.

The next test has as its target T1, human Cav3.2. Put plainly: Ionworks screen for hCaV3.2 (IonWorks HT voltage clamp, T-type calcium current). The format is cell-based. The settings on record: IonWorks (IW) screen.
From the text: as §1
HEK cells were transiently transfected and then selected for stable heterologous expression of different channel proteins of interest. Calcium channel cell lines expressed a resting potassium current, human Kir2.1, and the pore forming α-subunit of voltage-gated calcium channels. In the case of Cav2.1 cells the auxiliary subunit, β2a, was also expressed. Calcium channel lines that were used to generate the data in this document expressed either human Cav3.2, rat Cav3.2 or human Cav2.1. The human heart sodium channel, hNav1.5, was stably expressed in CHO cells. These cells were licensed from the University of Pennsylvania.
Cell lines were grown at 37° C. in humidified incubators, equilibrated with 95% air/5% CO2. CHO cells were grown in Ham's F-12 medium. HEK cells were grown in DMEM. All media were supplemented with 10% heat-inactivated fetal bovine serum, penicillin, streptomycin and appropriate selection antibiotics (zeocin, geneticin and/or hygromycin). Cells were passaged when 80% confluent or less.
Ionworks Screen for hCaV3.2
The extracellular buffer for experiments using this instrument contained the following (mM) (NaCl 125, HEPES 10, KCl 5.4, CaCl2 1.8, MgCl2 1.8, 0.2 BaCl2 pH 7.35). The IonWorks uses amphotericin to gain electrical access to the cell interior. The internal solution contained (mM concentrations): 130 K-gluconate, 20 KCl, 5 HEPES-KOH (pH 7.25), 2 CaC12, 1 MgCl2. Amphotericin added at 5 mg in 65 ml when present (in 650 μl DMSO). All internal and external solutions for this experiment contain 1% DMSO. Cells were acutely trypsinized from a T-75 flask and resuspended in extracellular buffer at a density of 2×10^5 cells/ml.
Experiments were performed at room temperature, Transmembrane potential was held at −100 mV for 5 seconds prior to running the voltage protocol. During this time leak currents were measured during a step to −110 mV (200 milliseconds). T-type calcium currents were activated with a 250 millisecond step to −20 mV. This depolarization step was repeated for a total of 10 pulses with an interpulse interval of 1 second. Data were excluded if the following acceptance criteria were not met: total resistance for the pre-compound scan >65 MΩ, pre-compound current >250 pA, post compound total resistance >50 MΩ.
T-type currents were measured as the peak inward current minus the current at the end of the 250 msec step to −20 mV. After the recoding configuration was established there was a pre-compound measurement of current amplitude Compound was added as a 3× solution containing 1% DMSO. After incubation with compound for 10 minutes currents were measured again. The current amplitude after compound addition was divided by the pre-compound current for pulse 10 to determine the traction of current remaining after compound addition. For each compound, 8-point concentration-effect relationships were measured with ½ log serial dilutions.
For `CC[C@H](C)[C@H](NC(=O)N1CCC2(CC1)CN(CCC(C)C)C2c1ccc(F)cc1)C(=O)OC` (some centres unmarked), the half-maximal inhibitory concentration (IC50) (in general, the concentration that inhibits the measured activity by half) came out at 58 nM.
Consider `CC(C)CCN1CC2(CCN(C(=O)NC34CC5CC(CC(C5)C3)C4)CC2)C1c1ccc(F)cc1` (centres unmarked), for which the IC50 is 68 nM.
Still for that read-out and setting: next, `CC(C)CCN1CC2(CCN(C(=O)Nc3cc(F)cc(F)c3)CC2)C1c1ccc(F)cc1` (centres unmarked): 70 nM; `CC[C@H](C)[C@H](NC(=O)N1CCC2(CC1)CN(C(C)C)C2c1ccc(-c2ccccc2)cc1)C(=O)OC` (some centres unmarked): 76 nM; `CC[C@H](C)[C@H](NC(=O)N1CCC2(CC1)CN(C(C)C)C2c1ccc(Br)cc1)C(=O)OC` (single isomer, unassigned): 24 nM.
In the case of `CC(C)N1CC2(CCN(C(=O)Nc3cccc(Cl)c3)CC2)C1c1ccc(Cl)cc1` (single isomer, unassigned), the IC50 is 38 nM.
As for `CC(C)N1CC2(CCN(C(=O)Nc3cc(F)cc(F)c3)CC2)C1c1ccc(Br)cc1` (single isomer, unassigned), the IC50 worked out at 44 nM.
The same measure, in the same setting: to `CC(C)N1CC2(CCN(C(=O)Nc3ccc(Cl)cc3)CC2)C1c1ccc(Cl)cc1` (single isomer, unassigned) belongs 49 nM; to `CC(C)N1CC2(CCN(C(=O)Nc3cccc(C#N)c3)CC2)C1c1ccc(Cl)cc1` (single isomer, unassigned), 50 nM; to `CC(C)N1CC2(CCN(C(=O)Nc3cccc(F)c3)CC2)C1c1ccc(Br)cc1` (single isomer, unassigned), 58 nM.
On the same count and under the same terms, next, `CC(C)N1CC2(CCN(C(=O)Nc3cccc(F)c3)CC2)C1c1ccc(Cl)cc1` (single isomer, unassigned): 64 nM; `CC[C@H](C)[C@H](NC(=O)N1CCC2(CC1)CN(C(C)C)C2c1ccc(Cl)cc1)C(=O)OC(C)(C)C` (single isomer, unassigned): 85 nM.
Still for that read-out and setting: to `O=C(Nc1cc(F)cc(F)c1)N1CCC2(CC1)CN(c1ccc(F)c(Cl)c1)C2c1ccccn1` (single isomer, unassigned) belongs 60 nM; to `CC(C)CCN1CC2(CCN(C(=O)Nc3cc(F)cc(F)c3)CC2)C1c1ccc(F)cc1` (single isomer, unassigned), 76 nM; to `CC[C@H](C)[C@H](NC(=O)N1CCC2(CC1)CN(CCC(C)C)C2c1ccc(F)cc1)C(=O)OC` (single isomer, unassigned), 45 nM.
